Consider two compounds from US8323704B2, “Process for preparation of extract of Decalepis hamiltonii having antioxidant activity” (Council of Scientific and Industrial Research, priority 2003, dated 2012).

A short description of assay [1]: Antioxidant assay using β-Carotene Linoleate model System (β CLAMS). Type of assay: biochemical. The conditions noted are these: bleaching of β carotene, 180 min, 50° C. The source says: Antioxidant assay using β-Carotene Linoleate model System (β CLAMS) (Hidalgo et al., 1994)
This is one of the rapid methods to screen antioxidants, which is mainly based on principle that Linoleic acid which is an unsaturated fatty acid gets oxidized by “Reactive Oxgen Species” (ROS) produced by oxygenated water. The products formed will initiate the β-Carotene oxidation, which leads to discoloration.
Due to insolubility of β-Carotene in water, it is first made into emulsion. β-Carotene is dissolved in chloroform and using Tween-40 (Polyoxyethylene sorbotan manonitrate) as surfactant, it was mixed with Linoleic acid to form emulsion. The resulting mixture is diluted with triple distilled water (1 part) and mixed well. This emulsion is further made up with oxygenated water (4 parts) which initiates the process of oxidation immediately. It is transferred to tubes containing samples. Initial (zero min) reading is read, followed by recording the absorbance at 15 min intervals at 470 nm. All tubes were placed in water bath at 50° C. throughout the experiment.
β Carotene linoleic acid emulsion mixture—100 ml (Jayaprakash et al., 2000) […]
[…] Absorbance of all samples were taken at 470 nm at Zero time and tubes were placed at 50° C. in water bath., Measurement of Absorbance was continued at an interval of 15 minutes, till the colour of β carotene disappeared in the control reaction (t=180 min). […] Dose response of antioxidant activity for various extracts was determined at different concentrations.
The antioxidant activity (% AA) of extracts was evaluated in terms of bleaching of β Carotene using the following formula (Hidalgo et al, 1994).
Each experiment was carried out in triplicate and the deviation of absorbance value was less than 10%. % AA=100[1-(A^0-A^t)/A^00-A^0t)] […]
A^0=Zero time absorbance of sample
A^t=Absorbance of sample after incubation for 180 min
A^00=Zero time absorbance of control
A^t0=Absorbance of control after incubation for 180 min.
And results were expressed as % Antioxidant activity.

The nature of assay [2]: Free radical scavenging activity using D.P.P.H as stable free radical. Type of assay: biochemical. The conditions noted are these: 20 minutes, 517 nm. On the procedure: Schematic representation of chemically stable radical scavenging activity using D.P.P.H as stable free radical: (Blios, 1958)
Free radical scavenging potentials of the extracts were tested against a methanolic solution of α,α-diphenyl-β-picryl hydrazyl (D.P.P.H). Antioxidants reacts with D.P.P.H. and convert it to α,α-diphenyl-β-picryl hydrazine. The degree of discoloration indicates the scavenging potentials of the antioxidant extract. The change in the absorbance produced at 517 nm has been used as a measure of antioxidant activity.
• Methanolic solution of D.P.P.H (100 μM): 39.4 mg of D.P.P.H was dissolved in one liter of analytical grade methanol. • Preparation of the extract solutions: 55 mg of the extract was dissolved in 10 ml of methanol and filtered; the filtrate was used for the experiments. Method:
Aliquots of 0.025, 0.05, 0.1 ml of extracts and standard were taken in different test tubes. To this 5 ml of methanolic solution of D.P.P.H was added, shaken well and the mixture was allowed to stand at room temperature for 20 minutes. The blank was prepared as above without extract. […] The absorbance of blank was first noted at 517 nm. The change of absorbance of the samples was measured.
Scavenging activity was expressed as the inhibition percentage calculated using the following formula, […]

For `COc1ccc(O)c(C(C)(C)C)c1` [Standard BHA, butylated hydroxy anisole], the “% Activity ± S.D (antioxidant activity, % AA)” value in assay [1] (100 ppm) amounted to 84.3%; in assay [1] (500 ppm) it was 88.6%; in assay [1] (1000 ppm), 90.1%.
“α,α-diphenyl-β-picryl hydrazyl [Standard D.P.P.H]”: the results for the “% Activity ± S.D (anti-radical activity, inhibition percentage)” value in assay [2] (100 ppm), in assay [2] (500 ppm) and in assay [2] (1000 ppm) were 88.3%, 92.6% and 94.3%, respectively.
